According to ChEMBL document CHEMBL1201862, “PubChem BioAssay data set” (2004):
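Following 48 hours of exposure in 96-well plates, responses at five concentrations were used to interpolate endpoints linearly. GI50 marks 50% less growth.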 The source made the active and inactive calls. Rule as the data show it: active = GI50 up to about 1.1 µM and inactive = higher.

Assays:
Experiment in all cases: NCI anticancer screen, dose series, 48 h
NCI-H522 = system: NCI-H522
NCI-H460 = system: NCI-H460
SF-539 = system: SF-539
PC-3 = system: PC-3
T47D = system: T47D
786-0 = system: 786-0
OVCAR-5 = system: OVCAR-5
SN12C = system: SN12C
DU-145 = system: DU-145
HOP-92 = system: HOP-92
SK-MEL-28 = system: SK-MEL-28
UACC-62 = system: UACC-62
M14 = system: M14
CCRF-CEM = system: CCRF-CEM
OVCAR-3 = system: OVCAR-3
NCI-H23 = system: NCI-H23
U-251 = system: U-251
A498 = system: A498
K562 = system: K562
RXF 393 = system: RXF 393
RPMI-8226 = system: RPMI-8226
UACC-257 = system: UACC-257
OVCAR-4 = system: OVCAR-4
HL-60 = system: HL-60
SF-295 = system: SF-295
SK-MEL-2 = system: SK-MEL-2
ACHN = system: ACHN
MDA-MB-435 = system: MDA-MB-435
NCI/ADR-RES = system: NCI/ADR-RES
LOX IMVI = system: LOX IMVI
MOLT-4 = system: MOLT-4
HOP-62 = system: HOP-62
TK-10 = system: TK-10
SW-620 = system: SW-620
A549 = system: A549
HCT-15 = system: HCT-15
KM12 = system: KM12
IGROV-1 = system: IGROV-1
HCT-116 = system: HCT-116
SF-268 = system: SF-268
NCI-H226 = system: NCI-H226
COLO 205 = system: COLO 205
MDA-MB-231 = system: MDA-MB-231
BT-549 = system: BT-549
HT-29 = system: HT-29
SK-MEL-5 = system: SK-MEL-5
SNB-19 = system: SNB-19
SR = system: SR
Malme-3M = system: Malme-3M
EKVX = system: EKVX
MCF7 = system: MCF7
MDA-N = system: MDA-N
CAKI-1 = system: CAKI-1
Hs-578T = system: Hs-578T
OVCAR-8 = system: OVCAR-8
HCC 2998 = system: HCC 2998
SNB-75 = system: SNB-75
UO-31 = system: UO-31
SK-OV-3 = system: SK-OV-3

SMILES: COc1cc(C2CC(C)(O)Oc3cc4c(cc32)OCO4)cc(OC)c1OC (stereo not drawn)
- GI50 (NCI-H522): 0.266 µM (active)
- GI50 (NCI-H460): 0.389 µM (active)
- GI50 (SF-539): 0.195 µM (active)
- GI50 (PC-3): 0.274 µM (active)
- GI50 (T47D): 0.296 µM (active)
- GI50 (786-0): 0.375 µM (active)
- GI50 (OVCAR-5): 10.9 µM (inactive)
- GI50 (SN12C): 0.977 µM (active)
- GI50 (DU-145): 0.546 µM (active)
- GI50 (HOP-92): 2.56 µM (inactive)
- GI50 (SK-MEL-28): 0.569 µM (active)
- GI50 (UACC-62): 0.23 µM (active)
- GI50 (M14): 0.466 µM (active)
- GI50 (CCRF-CEM): 0.34 µM (active)
- GI50 (OVCAR-3): 0.315 µM (active)
- GI50 (NCI-H23): 0.474 µM (active)
- GI50 (U-251): 0.358 µM (active)
- GI50 (A498): 4.6 µM (inactive)
- GI50 (K562): 0.386 µM (active)
- GI50 (RXF 393): 0.137 µM (active)
- GI50 (RPMI-8226): 0.325 µM (active)
- GI50 (UACC-257): 0.822 µM (active)
- GI50 (OVCAR-4): 0.938 µM (active)
- GI50 (HL-60): 0.247 µM (active)
- GI50 (SF-295): 0.184 µM (active)
- GI50 (SK-MEL-2): 1.04 µM (active)
- GI50 (ACHN): 0.708 µM (active)
- GI50 (MDA-MB-435): 0.169 µM (active)
- GI50 (NCI/ADR-RES): 0.233 µM (active)
- GI50 (LOX IMVI): 0.839 µM (active)
- GI50 (MOLT-4): 0.451 µM (active)
- GI50 (HOP-62): 0.501 µM (active)
- GI50 (TK-10): 61 µM (inactive)
- GI50 (SW-620): 0.33 µM (active)
- GI50 (A549): 2.49 µM (inactive)
- GI50 (HCT-15): 0.521 µM
- GI50 (KM12): 0.191 µM (active)
- GI50 (IGROV-1): 0.668 µM (active)
- GI50 (HCT-116): 0.449 µM (active)
- GI50 (SF-268): 0.962 µM (active)
- GI50 (NCI-H226): 0.891 µM (active)
- GI50 (COLO 205): 0.419 µM (active)
- GI50 (MDA-MB-231): 0.252 µM (active)
- GI50 (BT-549): 0.583 µM (active)
- GI50 (HT-29): 0.334 µM (active)
- GI50 (SK-MEL-5): 0.208 µM (active)
- GI50 (SNB-19): 0.617 µM (active)
- GI50 (SR): 0.374 µM (active)
- GI50 (Malme-3M): 0.205 µM (active)
- GI50 (EKVX): 5.36 µM (inactive)
- GI50 (MCF7): 0.321 µM (active)
- GI50 (MDA-N): 0.166 µM (active)
- GI50 (CAKI-1): 0.417 µM (active)
- GI50 (Hs-578T): 0.263 µM (active)
- GI50 (OVCAR-8): 0.421 µM (active)
- GI50 (HCC 2998): 1.31 µM (inactive)

SMILES: CC1=C2C(=O)OCC23C=COC3(C)O1 (stereo not drawn)
- GI50 (NCI-H522): 29.1 µM (inactive)
- GI50 (NCI-H460): 48.4 µM (inactive)
- GI50 (SF-539): 21.2 µM (inactive)
- GI50 (PC-3): 38.2 µM (inactive)
- GI50 (T47D): 29.3 µM (inactive)
- GI50 (786-0): 35.6 µM (inactive)
- GI50 (OVCAR-5): 47.1 µM (inactive)
- GI50 (SN12C): 37.7 µM (inactive)
- GI50 (DU-145): 39.4 µM (inactive)
- GI50 (HOP-92): 45 µM (inactive)
- GI50 (SK-MEL-28): 20.4 µM (inactive)
- GI50 (UACC-62): 19.4 µM (inactive)
- GI50 (M14): 24.7 µM (inactive)
- GI50 (CCRF-CEM): 33.5 µM (inactive)
- GI50 (OVCAR-3): 33.4 µM (inactive)
- GI50 (NCI-H23): 39 µM (inactive)
- GI50 (U-251): 25.4 µM (inactive)
- GI50 (A498): 43.3 µM (inactive)
- GI50 (K562): 31.8 µM (inactive)
- GI50 (RXF 393): 31.4 µM (inactive)
- GI50 (RPMI-8226): 32.5 µM (inactive)
- GI50 (UACC-257): 32.7 µM (inactive)
- GI50 (OVCAR-4): 29.4 µM (inactive)
- GI50 (SNB-75): 24.8 µM (inactive)
- GI50 (SF-295): 41.4 µM (inactive)
- GI50 (SK-MEL-2): 32.6 µM (inactive)
- GI50 (ACHN): 34.3 µM (inactive)
- GI50 (MDA-MB-435): 20.7 µM (inactive)
- GI50 (NCI/ADR-RES): 34.9 µM (inactive)
- GI50 (LOX IMVI): 30.3 µM (inactive)
- GI50 (MOLT-4): 21.4 µM (inactive)
- GI50 (HOP-62): 34.2 µM (inactive)
- GI50 (TK-10): 42 µM (inactive)
- GI50 (SW-620): 26.2 µM (inactive)
- GI50 (A549): 66.7 µM (inactive)
- GI50 (HCT-15): 26.2 µM
- GI50 (KM12): 26.9 µM (inactive)
- GI50 (IGROV-1): 32.7 µM (inactive)
- GI50 (HCT-116): 26.9 µM (inactive)
- GI50 (UO-31): 30.8 µM (inactive)
- GI50 (SF-268): 60.7 µM (inactive)
- GI50 (NCI-H226): 28.4 µM (inactive)
- GI50 (COLO 205): 21.5 µM (inactive)
- GI50 (MDA-MB-231): 18.6 µM (inactive)
- GI50 (BT-549): 44.4 µM (inactive)
- GI50 (HT-29): 29.3 µM (inactive)
- GI50 (SK-MEL-5): 18 µM (inactive)
- GI50 (SNB-19): 58.9 µM (inactive)
- GI50 (SR): 8.38 µM (inactive)
- GI50 (Malme-3M): 27.9 µM (inactive)
- GI50 (EKVX): 35.7 µM (inactive)
- GI50 (MCF7): 36.2 µM (inactive)
- GI50 (MDA-N): 29 µM (inactive)
- GI50 (CAKI-1): 37 µM (inactive)
- GI50 (Hs-578T): 50.4 µM (inactive)
- GI50 (OVCAR-8): 35.4 µM (inactive)
- GI50 (SK-OV-3): 46 µM (inactive)
- GI50 (HCC 2998): 69.3 µM (inactive)

SMILES: O=[N+]([O-])c1ccc(O)c(/C=N/NC(=S)N2CCCCC2)c1
- GI50 (NCI-H522): 3.52 µM (inactive)
- GI50 (NCI-H460): 4.81 µM (inactive)
- GI50 (SF-539): 6.82 µM (inactive)
- GI50 (PC-3): 7.48 µM (inactive)
- GI50 (T47D): 6.18 µM (inactive)
- GI50 (786-0): 1.84 µM (inactive)
- GI50 (OVCAR-5): 16 µM (inactive)
- GI50 (SN12C): 3.13 µM (inactive)
- GI50 (DU-145): 3.83 µM (inactive)
- GI50 (HOP-92): 4.17 µM (inactive)
- GI50 (SK-MEL-28): 3.71 µM (inactive)
- GI50 (UACC-62): 3.3 µM (inactive)
- GI50 (M14): 3.81 µM (inactive)
- GI50 (CCRF-CEM): 0.728 µM (active)
- GI50 (OVCAR-3): 2.24 µM (inactive)
- GI50 (NCI-H23): 3.61 µM (inactive)
- GI50 (U-251): 3.53 µM (inactive)
- GI50 (A498): 9.12 µM (inactive)
- GI50 (K562): 4.95 µM (inactive)
- GI50 (RXF 393): 6.05 µM (inactive)
- GI50 (RPMI-8226): 2.79 µM (inactive)
- GI50 (UACC-257): 7.16 µM (inactive)
- GI50 (OVCAR-4): 6.24 µM (inactive)
- GI50 (SNB-75): 4.22 µM (inactive)
- GI50 (HL-60): 0.282 µM (active)
- GI50 (SF-295): 3.01 µM (inactive)
- GI50 (SK-MEL-2): 11.3 µM (inactive)
- GI50 (ACHN): 1.84 µM (inactive)
- GI50 (MDA-MB-435): 7.43 µM (inactive)
- GI50 (NCI/ADR-RES): 1.59 µM (inactive)
- GI50 (LOX IMVI): 1.57 µM (inactive)
- GI50 (MOLT-4): 1.34 µM (inactive)
- GI50 (HOP-62): 5.74 µM (inactive)
- GI50 (TK-10): 4.98 µM (inactive)
- GI50 (SW-620): 3.13 µM (inactive)
- GI50 (A549): 9.25 µM (inactive)
- GI50 (HCT-15): 1.39 µM
- GI50 (KM12): 3.59 µM (inactive)
- GI50 (IGROV-1): 1.67 µM (inactive)
- GI50 (HCT-116): 3.21 µM (inactive)
- GI50 (UO-31): 0.91 µM (active)
- GI50 (SF-268): 2.45 µM (inactive)
- GI50 (NCI-H226): 1.55 µM (inactive)
- GI50 (COLO 205): 2.38 µM (inactive)
- GI50 (MDA-MB-231): 5.89 µM (inactive)
- GI50 (BT-549): 6.14 µM (inactive)
- GI50 (HT-29): 2.33 µM (inactive)
- GI50 (SK-MEL-5): 3.7 µM (inactive)
- GI50 (SNB-19): 4.69 µM (inactive)
- GI50 (SR): 2.43 µM (inactive)
- GI50 (Malme-3M): 1.64 µM (inactive)
- GI50 (EKVX): 2.42 µM (inactive)
- GI50 (MCF7): 4.55 µM (inactive)
- GI50 (MDA-N): 8.26 µM (inactive)
- GI50 (CAKI-1): 3.51 µM (inactive)
- GI50 (Hs-578T): 13.8 µM (inactive)
- GI50 (OVCAR-8): 1.8 µM (inactive)
- GI50 (SK-OV-3): 4.8 µM (inactive)
- GI50 (HCC 2998): 7.73 µM (inactive)
